In PubChem BioAssay (NCI):
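In this assay, cells in 96-well plates receive the compound at five concentrations for 48 hours. Endpoints are linearly interpolated between the surrounding concentrations. At the GI50, growth is halved. The concentration for full growth arrest is given as TGI.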

Assays:
Assay in all cases: NCI tumour cell line growth inhibition, 48 h
[1] = system: HOP-92 NSCLC
[2] = system: CAKI-1 renal
[3] = system: UO-31 renal
[4] = system: OVCAR-5 ovarian
[5] = system: HL-60(TB) leukemia
[6] = system: DU-145 prostate
[7] = system: SR leukemia
[8] = system: SK-MEL-28 melanoma
[9] = system: NCI/ADR-RES ovarian
[10] = system: COLO 205 colon
[11] = system: IGROV1 ovarian
[12] = system: SNB-19 CNS
[13] = system: SF-268 CNS
[14] = system: SF-539 CNS
[15] = system: A498 renal
[16] = system: RXF 393 renal
[17] = system: HCT-116 colon
[18] = system: U251 CNS
[19] = system: HS 578T breast
[20] = system: CCRF-CEM leukemia
[21] = system: SNB-75 CNS
[22] = system: ACHN renal
[23] = system: RPMI-8226 leukemia
[24] = system: T-47D breast
[25] = system: SK-MEL-2 melanoma
[26] = system: HCC-2998 colon
[27] = system: MDA-MB-435
[28] = system: K-562 leukemia
[29] = system: M14 melanoma
[30] = system: HT29 colon
[31] = system: MOLT-4 leukemia
[32] = system: NCI-H23 lung
[33] = system: UACC-257 melanoma
[34] = system: SK-OV-3 ovarian
[35] = system: 786-0 renal
[36] = system: BT-549 breast
[37] = system: A549 NSCLC
[38] = system: TK-10 renal
[39] = system: SK-MEL-5 melanoma
[40] = system: MCF7 breast
[41] = system: HCT-15 colon
[42] = system: NCI-H460 lung
[43] = system: SF-295 CNS
[44] = system: KM12 colon
[45] = system: UACC-62 melanoma
[46] = system: LOX IMVI melanoma
[47] = system: OVCAR-3 ovarian
[48] = system: EKVX NSCLC
[49] = system: PC-3 prostate
[50] = system: MDA-MB-231 breast
[51] = system: OVCAR-4 ovarian
[52] = system: OVCAR-8 ovarian
[53] = system: NCI-H522 lung
[54] = system: HOP-62 NSCLC
[55] = system: SW-620 colon
[56] = system: SN12C renal

## OC(c1cc2cc(Br)ccc2c2cc(Br)ccc12)C1CCCCN1 (stereo not drawn)
[1]
  GI50: 1.21 µM
  TGI: 2.67 µM
[2]
  GI50: 1.76 µM
  TGI: 3.54 µM
[3]
  GI50: 1.46 µM
  TGI: 3.18 µM
[4]
  GI50: 1.58 µM
  TGI: 3.13 µM
[5]
  GI50: 1.75 µM
  TGI: 3.43 µM
[6]
  GI50: 1.95 µM
  TGI: 3.43 µM

## Cc1ccccc1NC(=O)NC(Oc1ccccc1)(C(F)(F)F)C(F)(F)F
[7]
  TGI: > 100 µM
[8]
  TGI: > 100 µM
[9]
  TGI: > 100 µM
[10]
  TGI: > 100 µM
[11]
  TGI: > 100 µM
[12]
  TGI: > 100 µM
[13]
  TGI: > 100 µM
[14]
  TGI: > 100 µM
[15]
  TGI: > 100 µM
[16]
  TGI: > 100 µM
[17]
  TGI: > 100 µM
[18]
  TGI: > 100 µM
[19]
  TGI: > 100 µM
[2]
  TGI: 97.5 µM
[20]
  TGI: > 100 µM
[21]
  TGI: > 100 µM
[22]
  TGI: > 100 µM
[23]
  TGI: > 100 µM
[24]
  TGI: > 100 µM
[25]
  TGI: > 100 µM
[3]
  TGI: > 100 µM
[26]
  TGI: > 100 µM
[27]
  TGI: > 100 µM
[28]
  TGI: > 100 µM
[4]
  TGI: > 100 µM
[29]
  TGI: > 100 µM
[30]
  TGI: > 100 µM
[31]
  TGI: > 100 µM
[32]
  TGI: > 100 µM
[5]
  TGI: > 100 µM
[33]
  TGI: > 100 µM
[34]
  TGI: > 100 µM
[35]
  TGI: > 100 µM
[36]
  TGI: > 100 µM

## COc1ccc2nc3cc(Cl)ccc3c(NCCCNCc3cc(OC)c(OC)c(OC)c3)c2c1
[20]
  TGI: > 100 µM
[27]
  TGI: 3.24 µM
[4]
  TGI: 3.11 µM

## CN(C)CCNC(=O)c1ccc(Nc2nc3ccccc3c3occc23)cc1
[37]
  GI50: 4.08 µM
  TGI: 16.1 µM
[8]
  GI50: 16.5 µM
  TGI: 44 µM
[38]
  GI50: 1.06 µM
  TGI: 2.54 µM
[9]
  GI50: 8.92 µM
  TGI: 22.6 µM
[39]
  GI50: 3.96 µM
  TGI: 14 µM
[10]
  GI50: 22.6 µM
  TGI: 59.7 µM
[11]
  GI50: 2.18 µM
  TGI: 10.3 µM
[1]
  GI50: 1.8 µM
  TGI: 9.84 µM
[12]
  GI50: 18.8 µM
  TGI: 39 µM
[13]
  GI50: 63.7 µM
  TGI: > 100 µM
[14]
  GI50: 1.83 µM
  TGI: 3.7 µM
[40]
  GI50: 49.3 µM
  TGI: > 100 µM
[41]
  GI50: 2.12 µM
  TGI: 4.75 µM
[15]
  GI50: 12.3 µM
  TGI: 28.1 µM
[17]
  GI50: 1.66 µM
  TGI: 3.02 µM
[18]
  GI50: 2.45 µM
  TGI: 6.35 µM
[42]
  GI50: 28.5 µM
  TGI: > 100 µM
[43]
  GI50: 1.88 µM
  TGI: 4.18 µM
[44]
  GI50: 1.89 µM
  TGI: 4.15 µM
[19]
  GI50: 18.6 µM
  TGI: 42.1 µM
[2]
  GI50: 2.18 µM
  TGI: 4.95 µM
[45]
  GI50: 1.35 µM
  TGI: 2.71 µM
[20]
  GI50: 3.04 µM
  TGI: 8.74 µM
[46]
  GI50: 1.84 µM
  TGI: 3.66 µM
[47]
  GI50: 2.4 µM
  TGI: 7.87 µM
[21]
  GI50: 10.5 µM
  TGI: 25.5 µM
[22]
  GI50: 2.54 µM
  TGI: 7.56 µM
[23]
  GI50: 2.9 µM
  TGI: 9.05 µM
[24]
  GI50: 16.4 µM
  TGI: 39.8 µM
[48]
  GI50: 11.7 µM
  TGI: 28.7 µM
[25]
  GI50: 9.71 µM
  TGI: 26.6 µM
[3]
  GI50: 3.82 µM
  TGI: 16.2 µM
[26]
  GI50: 1.62 µM
  TGI: 3.07 µM
[49]
  GI50: 3 µM
  TGI: 14.3 µM
[27]
  GI50: 1.95 µM
  TGI: 3.94 µM
[50]
  GI50: 1.54 µM
  TGI: 4.14 µM
[28]
  GI50: 4.29 µM
  TGI: 17.1 µM
[51]
  GI50: 26.7 µM
  TGI: > 100 µM
[4]
  GI50: 11.8 µM
  TGI: 24.6 µM
[29]
  GI50: 1.7 µM
  TGI: 3.15 µM
[52]
  GI50: 2.08 µM
  TGI: 7.96 µM
[53]
  GI50: 13.3 µM
  TGI: 29.8 µM
[30]
  GI50: 6.31 µM
  TGI: > 100 µM
[31]
  GI50: 2.75 µM
  TGI: 5.17 µM
[32]
  GI50: 8.36 µM
  TGI: 21.3 µM
[54]
  GI50: 3.35 µM
  TGI: 8.16 µM
[55]
  GI50: 5.96 µM
  TGI: 25.8 µM
[34]
  GI50: 19.3 µM
  TGI: 37.2 µM
[6]
  GI50: 6.94 µM
  TGI: 20.7 µM
[35]
  GI50: 2.57 µM
  TGI: 6.8 µM
[56]
  GI50: 2.5 µM
  TGI: 7.87 µM
[36]
  GI50: 5.69 µM
  TGI: 23.9 µM
